Values quoted from earlier work, collected in patent US20210186070A1, “STEVIA EXTRACT CONTAINING SELECTED STEVIOL GLYCOSIDES AS FLAVOR, SALTY AND SWEETNESS PROFILE MODIFIER” (PureCircle USA Inc., priority 2013, published 2021).

In the case of `C=C1C[C@@]23CC[C@H]4[C@@](C)(CCC[C@@]4(C)C(=O)O[C@@H]4O[C@H](CO)[C@@H](O)[C@H](O)[C@H]4O)[C@@H]2CC[C@]1(O[C@@H]1O[C@H](CO)[C@@H](O)[C@H](O[C@@H]2O[C@H](CO)[C@@H](O)[C@H](O)[C@H]2O)[C@H]1O[C@@H]1O[C@H](CO)[C@@H](O)[C@H](O)[C@H]1O)C3` [Rebaudioside A], the “sweetness potency, times higher than sucrose” value is listed as “around 300 times”.
